{
  "source": "patent US20140256766A1",
  "about": "“TRANSMUCOSAL DRUG DELIVERY SYSTEM” (priority 2013, published 2014)",
  "origin": "cited, not measured here",
  "key": {"[1]": {"settings": "smoking a cigarette (WO 03/055486 A1)"}, "[2]": {"settings": "pH 6.8"}},
  "data": [
    {"smiles": "CN1CCCC1c1cccnc1", "note": "(centres unmarked) [nicotine]", "values": [
      {"measurement": "time to peak plasma nicotine levels", "setting": "[1]", "result": "about 10 minutes"},
      {"measurement": "nicotine in the free base form", "setting": "[2]", "result": "about 10%"}
    ]}
  ]
}
